The text below walks through data of ChEMBL document CHEMBL1201862, “PubChem BioAssay data set” (2004).

Test systems include HCT-15; RXF 393; COLO 205; 786-0; SK-OV-3; IGROV-1; K562; SW-620; CAKI-1; OVCAR-8; A498; HOP-92; HOP-62; TK-10; M14; NCI-H226.
Common to all, as to assay: NCI-60 cell line screen, 48 h

Structures are written as SMILES.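 In this assay, cells in 96-well plates receive the compound at five concentrations for 48 hours. Endpoints are linearly interpolated between the surrounding concentrations. The concentration for 50% growth inhibition is given as GI50.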 Activity calls are given as the source filed them. Rule as the data show it: active = GI50 up to about 1.1 µM and inactive = higher.

With `Cc1nc(Nc2ccc([N+](=O)[O-])cc2)sc1C(=O)/C=C/c1ccc(N(C)C)cc1`, the GI50 is 44.6 µM in the test with HCT-15; 30.4 µM (inactive) with RXF 393; > 100 µM (inactive) with COLO 205; > 100 µM (inactive) in the test on 786-0; > 100 µM (inactive) in the test with SK-OV-3; > 100 µM (inactive) in the test with IGROV-1. The GI50 was 37.8 µM (inactive) with K562; > 100 µM (inactive) in the test on SW-620; > 100 µM (inactive) in the test on CAKI-1; 73.3 µM (inactive) in the test with OVCAR-8; 49.2 µM (inactive) in the test with A498; > 100 µM (inactive) in the test with HOP-92. Besides, the GI50 with HOP-62 is > 100 µM (inactive); in the test with TK-10, 77.4 µM (inactive).
Regarding `Nc1ccc2c(c1)Oc1c(F)c(F)cc3c(=O)c(C(=O)O)cn-2c13`, the GI50 was 46.2 µM with HCT-15; 43.8 µM (inactive) in the test on RXF 393; 45 µM (inactive) in the test on COLO 205; 28.1 µM (inactive) with 786-0; > 100 µM (inactive) in the test on SK-OV-3; 38.6 µM (inactive) with IGROV-1. Besides, the GI50 in the test on K562 is 59.6 µM (inactive); in the test on SW-620, 41.3 µM (inactive); in the test with CAKI-1 it was 32.1 µM (inactive); in the test on OVCAR-8, 40.2 µM (inactive); with A498, 4 µM (inactive); in the test with M14, 81.5 µM (inactive). Besides, the GI50 in the test on HOP-92 is 25.1 µM (inactive); with HOP-62, 31.7 µM (inactive); in the test on TK-10, 38.1 µM (inactive).
In the case of `CCCCCCCCCCCCCCCCCC(=O)NCCCNCCCNC(=O)CCCCCCCCCCCCCCCCC`, the GI50 with HCT-15 was above 100 µM; in the test on COLO 205 it was > 100 µM (inactive); in the test on 786-0, > 100 µM (inactive); in the test on SK-OV-3, > 100 µM (inactive); in the test with IGROV-1, > 100 µM (inactive); in the test on K562, > 100 µM (inactive). Also, the GI50 in the test on SW-620, in the test with CAKI-1, with OVCAR-8, with A498, in the test with M14 and in the test with HOP-92 was > 100 µM (inactive) each time. Moreover, the GI50 with HOP-62, in the test on TK-10 and with NCI-H226 was > 100 µM (inactive) each time.
Turning to `C=C1c2[nH]c3ccccc3c2CC(C(=O)O)N1C(O)c1ccc(S(=O)(=O)O)cc1` (stereo not given), the GI50 in the test on RXF 393, in the test on 786-0, with SK-OV-3, in the test on K562, in the test on SW-620 and with CAKI-1 was > 100 µM (inactive) each time. For the same compound, the GI50 is > 100 µM (inactive) with OVCAR-8; > 100 µM (inactive) in the test on A498; > 100 µM (inactive) in the test on M14; 22.1 µM (inactive) in the test on HOP-92; > 100 µM (inactive) in the test with HOP-62; > 100 µM (inactive) with TK-10. Also, the GI50 in the test with NCI-H226 is 42.9 µM (inactive).
Turning to `COC1=CC(=C(C#N)/C(=N\c2ccccc2)SC)C=C(OC)C1=O`, the GI50 was 80.7 µM in the test with HCT-15; 24.4 µM (inactive) with RXF 393; > 100 µM (inactive) in the test on COLO 205; 31.6 µM (inactive) in the test with 786-0; > 100 µM (inactive) in the test with SK-OV-3; 86.1 µM (inactive) with IGROV-1. Besides, the GI50 is 22.6 µM (inactive) in the test on K562; 38.7 µM (inactive) in the test on SW-620; > 100 µM (inactive) in the test with CAKI-1; 31.1 µM (inactive) in the test with OVCAR-8; 20.9 µM (inactive) in the test with A498; > 10 µM (inactive) in the test with M14. The GI50 in the test with HOP-92 was 3.84 µM (inactive); with TK-10 it was > 100 µM (inactive).
As to `Clc1ccccc1C1=NN(c2ccccc2)C2c3ccccc3OCC12` (stereo not given), the GI50 is > 100 µM (inactive) in the test on RXF 393; > 100 µM (inactive) in the test with COLO 205; 74.5 µM (inactive) with 786-0; > 100 µM (inactive) in the test on SK-OV-3; > 100 µM (inactive) with IGROV-1; 44.3 µM (inactive) in the test with K562. The GI50 in the test on SW-620 was > 100 µM (inactive); in the test on OVCAR-8, > 100 µM (inactive); in the test with A498, > 100 µM (inactive); with HOP-92, 39.6 µM (inactive); with HOP-62, > 100 µM (inactive); in the test with TK-10, > 100 µM (inactive).
With `Clc1ccc(C2=NOC3C4CCC(C4)C23)cc1` (stereo not given), the GI50 in the test with HCT-15 is above 100 µM; in the test with COLO 205, > 100 µM (inactive); in the test on 786-0, > 100 µM (inactive); with SK-OV-3, > 100 µM (inactive); with IGROV-1, > 100 µM (inactive); in the test on K562 it was > 100 µM (inactive). The GI50 in the test on SW-620, in the test with CAKI-1, in the test with OVCAR-8, in the test on A498, with M14 and with HOP-92 was > 100 µM (inactive) throughout. For the same compound, the GI50 in the test on HOP-62, in the test on TK-10 and in the test with NCI-H226 was > 100 µM (inactive) in each case.
As to `O=c1[nH]nc2ccccc2c1Cl`, the GI50 was 6.41 µM in the test on HCT-15; 11.4 µM (inactive) in the test with COLO 205; 14.6 µM (inactive) with 786-0; 17.7 µM (inactive) with SK-OV-3; 12.6 µM (inactive) with IGROV-1; 4.24 µM (inactive) in the test on K562. The GI50 in the test on SW-620 was 13.8 µM (inactive); in the test with CAKI-1, 3.18 µM (inactive); in the test with OVCAR-8, 21.2 µM (inactive); in the test with A498 it was 17.5 µM (inactive); with M14 it was 12.3 µM (inactive); in the test on HOP-92, 3.08 µM (inactive). Besides, the GI50 with HOP-62 is 21 µM (inactive); in the test with TK-10 it was 18 µM (inactive); with NCI-H226, 24.6 µM (inactive).
Consider `O=C1C2=C(CCCC2)Nc2cccc3ncn1c23`, for which the GI50 is above 100 µM with HCT-15; > 100 µM (inactive) in the test with RXF 393; > 100 µM (inactive) with COLO 205; > 100 µM (inactive) in the test on 786-0; > 100 µM (inactive) with SK-OV-3; > 100 µM (inactive) with K562. The GI50 in the test with SW-620, in the test with OVCAR-8, in the test on A498, in the test with M14, in the test on HOP-92 and in the test on HOP-62 was > 100 µM (inactive) each time. Besides, in the test with TK-10, the GI50 is > 100 µM (inactive).
As to `[N-]=[N+]=NC1CC(n2cc(COCC(F)(F)F)c(=O)[nH]c2=O)OC1CO` (stereo not given), the GI50 in the test with RXF 393, in the test with COLO 205, with 786-0, in the test on SK-OV-3, in the test on IGROV-1 and with K562 was > 100 µM (inactive) throughout. Further, the GI50 in the test on SW-620, with CAKI-1, in the test on OVCAR-8, in the test with A498, in the test with M14 and with HOP-92 was > 100 µM (inactive) in each case. Further, the GI50 with HOP-62 and with TK-10 was > 100 µM (inactive) throughout.
